{
  "source": "PubChem BioAssay AID212",
  "about": "(DTP/NCI, 2004)",
  "test_system": "BDF1 mice, colon carcinoma 38 sc, T/C %",
  "experiment": "NCI In Vivo Anticancer Drug Screen. Data for tumor model Colon Carcinoma 38 (subcutaneous) in B6D2F1 (BDF1) mice",
  "settings": "endpoint: median tumor weight (est.), higher = larger tumour",
  "summary_of_the_method": "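Compound antitumor activity was assessed in mice carrying transplantable tumors. Survival or tumor size was recorded, and each value is the treated-group measurement divided by that of the vehicle-treated control group.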",
  "key": {"[1]": {"settings": "dose: 200.0 mg/kg/injection, schedule: Q07DX002 (ip), vehicle: saline"}, "[2]": {"settings": "dose: 1600.0 mg/kg/injection, schedule: Q07DX002 (ip), vehicle: saline"}, "[3]": {"settings": "dose: 25.0 mg/kg/injection, schedule: Q07DX002 (ip), vehicle: saline with Tween-80"}, "[4]": {"settings": "dose: 50.0 mg/kg/injection, schedule: Q07DX002 (ip), vehicle: saline with Tween-80"}, "[5]": {"settings": "dose: 100.0 mg/kg/injection, schedule: Q07DX002 (ip), vehicle: saline with Tween-80"}, "[6]": {"settings": "dose: 200.0 mg/kg/injection, schedule: Q07DX002 (ip), vehicle: saline with Tween-80"}, "[7]": {"settings": "dose: 400.0 mg/kg/injection, schedule: Q07DX002 (ip), vehicle: saline with Tween-80"}, "[8]": {"settings": "dose: 12.5 mg/kg/injection, schedule: Q07DX002 (ip), vehicle: Klucel (hydroxypropylcellulose) (HPC)"}, "[9]": {"settings": "dose: 25.0 mg/kg/injection, schedule: Q07DX002 (ip), vehicle: Klucel (hydroxypropylcellulose) (HPC)"}, "[10]": {"settings": "dose: 50.0 mg/kg/injection, schedule: Q07DX002 (ip), vehicle: Klucel (hydroxypropylcellulose) (HPC)"}, "[11]": {"settings": "dose: 12.5 mg/kg/injection, schedule: Q07DX002 (ip), vehicle: saline"}, "[12]": {"settings": "dose: 25.0 mg/kg/injection, schedule: Q07DX002 (ip), vehicle: saline"}, "[13]": {"settings": "dose: 50.0 mg/kg/injection, schedule: Q07DX002 (ip), vehicle: saline"}},
  "note": "Where “and” joins values, the source holds several entries; their conditions need not be identical. Equal entries are not always repeated. Inconclusive results are not listed.",
  "data": [
    {"molecule": "O=C(O)CP(=O)(O)O", "values": [
      {"measurement": "T/C", "setting": "[1]", "result": "115 % of control and 96 % of control"},
      {"measurement": "T/C", "setting": "dose: 800.0 mg/kg/injection, schedule: Q07DX002 (ip), vehicle: saline", "result": "78 % of control and 80 % of control"},
      {"measurement": "T/C", "setting": "[2]", "result": "59 % of control"}
    ]},
    {"molecule": "F[B-](F)(F)F", "values": [
      {"measurement": "T/C", "setting": "dose: 12.5 mg/kg/injection, schedule: Q07DX002 (ip), vehicle: gum acacia", "result": "105 % of control"},
      {"measurement": "T/C", "setting": "dose: 25.0 mg/kg/injection, schedule: Q07DX002 (ip), vehicle: gum acacia", "result": "90 % of control"},
      {"measurement": "T/C", "setting": "dose: 50.0 mg/kg/injection, schedule: Q07DX002 (ip), vehicle: gum acacia", "result": "95 % of control"},
      {"measurement": "T/C", "setting": "dose: 200.0 mg/kg/injection, schedule: Q07DX002 (ip), vehicle: gum acacia", "result": "64 % of control"},
      {"measurement": "T/C", "setting": "dose: 400.0 mg/kg/injection, schedule: Q07DX002 (ip), vehicle: gum acacia", "result": "77 % of control"}
    ]},
    {"molecule": "C[C@H](CCC[C@H](C)OS(=O)(=O)c1ccccc1)OS(=O)(=O)c1ccccc1", "values": [
      {"measurement": "T/C", "setting": "[3]", "result": "89 % of control and 91 % of control"},
      {"measurement": "T/C", "setting": "[4]", "result": "91 % of control and 98 % of control"},
      {"measurement": "T/C", "setting": "[5]", "result": "82 % of control"},
      {"measurement": "T/C", "setting": "[6]", "result": "120 % of control and 100 % of control"},
      {"measurement": "T/C", "setting": "[7]", "result": "118 % of control"},
      {"measurement": "T/C", "setting": "dose: 800.0 mg/kg/injection, schedule: Q07DX002 (ip), vehicle: saline with Tween-80", "result": "116 % of control"}
    ]},
    {"molecule": "CCN(CC)c1ccc2cc(-c3nc4ccccc4n3C)c(=O)oc2c1", "values": [
      {"measurement": "T/C", "setting": "[8]", "result": "112 % of control"},
      {"measurement": "T/C", "setting": "[9]", "result": "120 % of control"},
      {"measurement": "T/C", "setting": "[10]", "result": "85 % of control"},
      {"measurement": "T/C", "setting": "dose: 100.0 mg/kg/injection, schedule: Q07DX002 (ip), vehicle: Klucel (hydroxypropylcellulose) (HPC)", "result": "62 % of control"}
    ]},
    {"molecule": "Cc1cc(O)c(N=Nc2ccc(C(=O)O)cc2)cc1C", "values": [
      {"measurement": "T/C", "setting": "[3]", "result": "108 % of control"},
      {"measurement": "T/C", "setting": "[4]", "result": "104 % of control"},
      {"measurement": "T/C", "setting": "[5]", "result": "100 % of control"},
      {"measurement": "T/C", "setting": "[6]", "result": "55 % of control"},
      {"measurement": "T/C", "setting": "[7]", "result": "84 % of control"}
    ]},
    {"molecule": "O=Cc1ccc(C(Cl)(Cl)Cl)cc1", "values": [
      {"measurement": "T/C", "setting": "dose: 12.5 mg/kg/injection, schedule: Q07DX002 (ip), vehicle: saline with Tween-80", "result": "47 % of control"},
      {"measurement": "T/C", "setting": "[11]", "result": "78 % of control"},
      {"measurement": "T/C", "setting": "[3]", "result": "74 % of control"},
      {"measurement": "T/C", "setting": "[12]", "result": "79 % of control"},
      {"measurement": "T/C", "setting": "[13]", "result": "74 % of control"},
      {"measurement": "T/C", "setting": "[5]", "result": "93 % of control"},
      {"measurement": "T/C", "setting": "dose: 100.0 mg/kg/injection, schedule: Q07DX002 (ip), vehicle: saline", "result": "88 % of control"},
      {"measurement": "T/C", "setting": "[6]", "result": "66 % of control"},
      {"measurement": "T/C", "setting": "[1]", "result": "67 % of control"},
      {"measurement": "T/C", "setting": "dose: 400.0 mg/kg/injection, schedule: Q07DX002 (ip), vehicle: saline", "result": "82 % of control"}
    ]},
    {"molecule": "C=Cc1cnc([N+](=O)[O-])n1C", "values": [
      {"measurement": "T/C", "setting": "[8]", "result": "67 % of control and 84 % of control"},
      {"measurement": "T/C", "setting": "[9]", "result": "109 % of control and 97 % of control"},
      {"measurement": "T/C", "setting": "[10]", "result": "62 % of control and 69 % of control"}
    ]},
    {"molecule": "CN1c2c(nc(N)[nH]c2=O)NCC1CCNc1ccc(C(=O)NC(CCC(=O)O)C(=O)O)cc1", "note": "(stereo not given)", "values": [
      {"measurement": "T/C", "setting": "dose: 50.0 mg/kg/injection, schedule: Q07DX003 (ip), vehicle: saline", "result": "155 % of control"},
      {"measurement": "T/C", "setting": "dose: 100.0 mg/kg/injection, schedule: Q07DX003 (ip), vehicle: saline", "result": "64 % of control"},
      {"measurement": "T/C", "setting": "dose: 200.0 mg/kg/injection, schedule: Q07DX003 (ip), vehicle: saline", "result": "99 % of control"},
      {"measurement": "T/C", "setting": "dose: 400.0 mg/kg/injection, schedule: Q07DX003 (ip), vehicle: saline", "result": "98 % of control"},
      {"measurement": "T/C", "setting": "dose: 800.0 mg/kg/injection, schedule: Q07DX003 (ip), vehicle: saline", "result": "92 % of control"}
    ]},
    {"molecule": "CC(C)[C@]12O[C@H]1[C@@H]1O[C@]13[C@]1(O[C@H]1C[C@H]1C4=C(C(=O)OC4)[C@@H](O)C[C@@]13C)[C@@H]2O", "values": [
      {"measurement": "T/C", "setting": "dose: 25.0 micrograms/kg/injection, schedule: Q07DX002 (ip), vehicle: saline + alcohol", "result": "113 % of control"},
      {"measurement": "T/C", "setting": "dose: 100.0 micrograms/kg/injection, schedule: Q07DX002 (ip), vehicle: saline + alcohol", "result": "113 % of control"},
      {"measurement": "T/C", "setting": "dose: 200.0 micrograms/kg/injection, schedule: Q07DX002 (ip), vehicle: saline + alcohol", "result": "109 % of control"},
      {"measurement": "T/C", "setting": "dose: 400.0 micrograms/kg/injection, schedule: Q07DX002 (ip), vehicle: saline + alcohol", "result": "63 % of control"}
    ]},
    {"molecule": "CSC(SC)=C1C(=O)NC(=O)NC1=O", "values": [
      {"measurement": "T/C", "setting": "dose: 6.25 mg/kg/injection, schedule: Q07DX002 (ip), vehicle: saline", "result": "85 % of control"},
      {"measurement": "T/C", "setting": "[11]", "result": "70 % of control"},
      {"measurement": "T/C", "setting": "[12]", "result": "83 % of control"},
      {"measurement": "T/C", "setting": "[13]", "result": "45 % of control"}
    ]},
    {"molecule": "OCC1OC(n2cnc3c(Cl)ncnc32)C(O)C1O", "note": "(stereo not given)", "values": [
      {"measurement": "T/C", "setting": "[2]", "result": "82 % of control"}
    ]}
  ]
}
